A value given as a limit tells only on which side of the number the result lay.

This note sets out measurements from ChEMBL document CHEMBL5723379, “Affinity On-target Cellular Literature for EUbOPEN Chemogenomic Library” (2024).

Assay [1] has as its target T1, Sodium-dependent neutral amino acid transporter B(0)AT1 (Homo sapiens, UniProt Q695T7). Briefly: Affinity On-target Cellular interaction: (Stable isotope uptake assay, MDCK cells) EUB0002537a SLC6A19. The assay is classed as functional, cell-based. Also noted: mode of action Inhibitor, recommended concentration 1 uM.
Assay [2] has as its target T1, Sodium-dependent neutral amino acid transporter B(0)AT1. The assay can be described thus: Affinity On-target Cellular interaction: (Fluorescence imaging plate reader (FLIPR) membrane potential (FMP) assay, MDCK cells) EUB0002537a SLC6A19. The assay is classed as functional, cell-based. Also noted: mode of action Inhibitor, recommended concentration 1 uM.
Assay [3] has as its target T2, Oxysterols receptor LXR-beta (Homo sapiens, UniProt P55055).
T2 sequence (P55055 whole entry): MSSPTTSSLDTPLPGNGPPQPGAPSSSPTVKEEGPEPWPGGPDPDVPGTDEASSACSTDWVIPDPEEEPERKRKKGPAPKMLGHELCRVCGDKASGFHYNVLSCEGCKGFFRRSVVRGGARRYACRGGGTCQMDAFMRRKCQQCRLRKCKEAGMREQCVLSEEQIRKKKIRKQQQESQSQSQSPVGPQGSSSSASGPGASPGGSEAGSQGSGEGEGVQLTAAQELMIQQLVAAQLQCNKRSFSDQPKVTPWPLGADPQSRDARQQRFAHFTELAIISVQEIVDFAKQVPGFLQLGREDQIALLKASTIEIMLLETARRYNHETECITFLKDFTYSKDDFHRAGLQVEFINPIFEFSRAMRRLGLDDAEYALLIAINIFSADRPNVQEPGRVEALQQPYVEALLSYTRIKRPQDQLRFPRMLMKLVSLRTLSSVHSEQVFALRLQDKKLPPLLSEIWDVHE
Briefly: Affinity On-target Cellular interaction: (Reporter gene assay (HEK293T cells)) EUB0001166a NR1H2. The assay is classed as functional, cell-based, HEK-293T. Set-up: mode of action Agonist, recommended concentration 1 uM. Background: A reporter such as luciferase makes a cellular process visible.

Assay [4] has as its target T3, Oxysterols receptor LXR-alpha (Homo sapiens, UniProt Q13133).
T3 sequence (Q13133 whole entry): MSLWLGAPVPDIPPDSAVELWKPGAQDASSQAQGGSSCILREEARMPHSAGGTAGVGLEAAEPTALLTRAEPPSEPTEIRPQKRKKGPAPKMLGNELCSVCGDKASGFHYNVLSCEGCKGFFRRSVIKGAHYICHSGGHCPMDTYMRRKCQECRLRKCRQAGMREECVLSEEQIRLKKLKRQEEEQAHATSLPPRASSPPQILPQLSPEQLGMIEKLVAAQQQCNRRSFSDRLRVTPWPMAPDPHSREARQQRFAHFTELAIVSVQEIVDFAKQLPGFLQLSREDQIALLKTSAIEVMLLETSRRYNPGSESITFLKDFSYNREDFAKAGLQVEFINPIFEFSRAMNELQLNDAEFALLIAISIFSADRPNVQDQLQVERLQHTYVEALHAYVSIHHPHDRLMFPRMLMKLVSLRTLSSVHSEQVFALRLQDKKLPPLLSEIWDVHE
Briefly: Affinity On-target Cellular interaction: (Reporter gene assay (HEK293T cells)) EUB0001166a NR1H3. The format is functional, cell-based, HEK-293T. Set-up: mode of action Agonist, recommended concentration 1 uM.

The target in assay [5] is Sodium- and chloride-dependent glycine transporter 1 (Homo sapiens, UniProt P48067). The assay can be described thus: Affinity On-target Cellular interaction: (Inhibition of radiolabelled [3H]glycine uptake in human SK-N-MC cells) EUB0002599a SLC6A9. The format is functional, cell-based. Also noted: mode of action Inhibitor, recommended concentration 1 uM.
Sodium- and chloride-dependent glycine transporter 1, sequence (P48067 whole entry): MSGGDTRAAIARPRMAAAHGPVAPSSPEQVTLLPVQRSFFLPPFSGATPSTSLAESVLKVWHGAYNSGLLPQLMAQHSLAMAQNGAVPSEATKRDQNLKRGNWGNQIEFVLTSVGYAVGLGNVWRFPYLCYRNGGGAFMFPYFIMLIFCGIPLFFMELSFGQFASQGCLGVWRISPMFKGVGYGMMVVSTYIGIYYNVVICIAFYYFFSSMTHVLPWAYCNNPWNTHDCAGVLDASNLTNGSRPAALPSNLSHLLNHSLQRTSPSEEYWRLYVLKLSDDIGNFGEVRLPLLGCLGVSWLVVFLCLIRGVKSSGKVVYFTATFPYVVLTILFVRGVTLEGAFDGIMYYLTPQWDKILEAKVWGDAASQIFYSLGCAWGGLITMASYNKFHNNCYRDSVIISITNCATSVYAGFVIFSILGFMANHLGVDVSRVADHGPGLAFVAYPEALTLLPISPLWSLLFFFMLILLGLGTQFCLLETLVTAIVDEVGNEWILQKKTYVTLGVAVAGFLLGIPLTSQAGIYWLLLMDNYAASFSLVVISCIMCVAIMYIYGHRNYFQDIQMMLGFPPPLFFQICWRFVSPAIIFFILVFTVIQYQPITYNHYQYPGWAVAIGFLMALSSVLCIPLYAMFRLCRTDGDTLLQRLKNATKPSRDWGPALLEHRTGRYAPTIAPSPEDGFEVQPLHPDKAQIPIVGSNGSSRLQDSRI
A further assay deals with Histone deacetylase 2 (Homo sapiens, UniProt Q92769). The assay can be described thus: Affinity On-target Cellular interaction: (Inhibition of enzyme activity in 293T cells transfected with vector alone) EUB0002519a HDAC2. The format is functional, cell-based, HEK-293T. Set-up: mode of action Inhibitor, recommended concentration 1 uM.
Histone deacetylase 2, sequence (Q92769 whole entry): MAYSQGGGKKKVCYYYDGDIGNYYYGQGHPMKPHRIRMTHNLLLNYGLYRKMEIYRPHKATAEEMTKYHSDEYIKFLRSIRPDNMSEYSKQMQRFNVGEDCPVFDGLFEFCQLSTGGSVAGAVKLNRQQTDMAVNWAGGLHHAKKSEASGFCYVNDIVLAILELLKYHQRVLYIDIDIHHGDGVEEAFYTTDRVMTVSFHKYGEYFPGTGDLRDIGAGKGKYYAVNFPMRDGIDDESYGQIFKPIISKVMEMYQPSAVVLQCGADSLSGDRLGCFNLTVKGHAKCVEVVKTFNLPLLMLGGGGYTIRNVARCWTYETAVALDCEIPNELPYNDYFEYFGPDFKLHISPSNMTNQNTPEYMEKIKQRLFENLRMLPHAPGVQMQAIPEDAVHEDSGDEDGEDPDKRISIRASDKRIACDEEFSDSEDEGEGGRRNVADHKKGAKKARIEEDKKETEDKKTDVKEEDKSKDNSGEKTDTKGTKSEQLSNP
The next assay addresses Histone deacetylase 1 (Homo sapiens, UniProt Q13547). Briefly: Affinity On-target Cellular interaction: (Inhibition of enzyme activity in 293T cells transfected with vector alone) EUB0002519a HDAC1. The assay is classed as functional, cell-based, HEK-293T. Set-up: mode of action Inhibitor, recommended concentration 1 uM.
Assay [6] deals with Nuclear receptor subfamily 1 group D member 1 (Homo sapiens, UniProt P20393). Briefly: Affinity On-target Cellular interaction: (Reporter gene assay (HEK293T cells)) EUB0001153a NR1D1. The format is functional, cell-based, HEK-293T. Set-up: mode of action Antagonist, recommended concentration 10 uM.
Nuclear receptor subfamily 1 group D member 1, sequence (P20393 whole entry): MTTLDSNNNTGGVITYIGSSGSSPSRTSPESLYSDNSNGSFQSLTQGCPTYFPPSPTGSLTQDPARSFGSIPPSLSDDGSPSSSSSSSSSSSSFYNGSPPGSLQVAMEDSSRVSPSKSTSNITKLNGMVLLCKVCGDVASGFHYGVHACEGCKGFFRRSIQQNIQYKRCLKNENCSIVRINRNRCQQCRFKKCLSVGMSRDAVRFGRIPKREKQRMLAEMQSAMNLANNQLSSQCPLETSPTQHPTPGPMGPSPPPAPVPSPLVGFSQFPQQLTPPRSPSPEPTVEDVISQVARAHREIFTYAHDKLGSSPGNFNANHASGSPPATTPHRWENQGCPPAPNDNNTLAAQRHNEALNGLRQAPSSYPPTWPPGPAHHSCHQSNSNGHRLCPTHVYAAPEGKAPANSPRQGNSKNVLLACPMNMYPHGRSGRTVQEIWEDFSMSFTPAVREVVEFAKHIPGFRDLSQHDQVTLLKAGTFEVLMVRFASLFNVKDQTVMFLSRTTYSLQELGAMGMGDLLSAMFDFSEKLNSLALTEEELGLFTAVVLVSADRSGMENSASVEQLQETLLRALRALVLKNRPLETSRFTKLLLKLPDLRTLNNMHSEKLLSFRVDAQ
Another assay addresses Bile acid receptor (Homo sapiens, UniProt Q96RI1). Briefly: Affinity On-target Cellular interaction: (Reporter gene assay (HEK293T cells)) EUB0001168a NR1H4. The format is functional, cell-based, HEK-293T. Set-up: mode of action Agonist, recommended concentration 1 uM.
In assay [7] the target is Nuclear receptor subfamily 1 group D member 2 (Homo sapiens, UniProt Q14995). Briefly: Affinity On-target Cellular interaction: (Reporter gene assay (HEK293T cells)) EUB0001152a NR1D2. The assay is classed as functional, cell-based, HEK-293T. Set-up: mode of action Agonist, recommended concentration 10 uM.
Nuclear receptor subfamily 1 group D member 2, sequence (Q14995 whole entry): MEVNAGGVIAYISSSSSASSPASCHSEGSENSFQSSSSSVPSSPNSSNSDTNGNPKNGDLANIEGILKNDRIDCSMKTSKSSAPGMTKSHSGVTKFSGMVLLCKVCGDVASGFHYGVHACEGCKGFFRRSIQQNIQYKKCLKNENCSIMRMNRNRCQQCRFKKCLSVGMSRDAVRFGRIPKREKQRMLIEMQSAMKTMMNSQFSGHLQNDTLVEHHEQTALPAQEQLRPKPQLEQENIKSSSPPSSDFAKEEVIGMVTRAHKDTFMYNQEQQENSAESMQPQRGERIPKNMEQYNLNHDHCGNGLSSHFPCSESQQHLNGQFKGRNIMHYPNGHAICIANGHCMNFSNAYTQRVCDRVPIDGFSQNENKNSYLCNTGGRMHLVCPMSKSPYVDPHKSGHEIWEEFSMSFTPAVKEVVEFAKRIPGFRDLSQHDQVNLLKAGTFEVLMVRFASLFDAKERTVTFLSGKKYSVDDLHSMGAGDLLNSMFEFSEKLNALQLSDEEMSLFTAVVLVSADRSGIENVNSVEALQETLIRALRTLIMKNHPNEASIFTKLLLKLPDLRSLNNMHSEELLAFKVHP
Another assay addresses Adenosine kinase (Homo sapiens, UniProt P55263). The assay can be described thus: Affinity On-target Cellular interaction: (Intact cell adenosine phosphorylation assay (radiochemical), IMR-32 human neuroblastoma cells) EUB0002485aCl ADK. The assay is classed as functional, cell-based. Set-up: mode of action Inhibitor, recommended concentration 1 uM.
The target in assay [8] is T4, Peroxisome proliferator-activated receptor delta (Homo sapiens, UniProt Q03181).
T4 sequence (Q03181 whole entry): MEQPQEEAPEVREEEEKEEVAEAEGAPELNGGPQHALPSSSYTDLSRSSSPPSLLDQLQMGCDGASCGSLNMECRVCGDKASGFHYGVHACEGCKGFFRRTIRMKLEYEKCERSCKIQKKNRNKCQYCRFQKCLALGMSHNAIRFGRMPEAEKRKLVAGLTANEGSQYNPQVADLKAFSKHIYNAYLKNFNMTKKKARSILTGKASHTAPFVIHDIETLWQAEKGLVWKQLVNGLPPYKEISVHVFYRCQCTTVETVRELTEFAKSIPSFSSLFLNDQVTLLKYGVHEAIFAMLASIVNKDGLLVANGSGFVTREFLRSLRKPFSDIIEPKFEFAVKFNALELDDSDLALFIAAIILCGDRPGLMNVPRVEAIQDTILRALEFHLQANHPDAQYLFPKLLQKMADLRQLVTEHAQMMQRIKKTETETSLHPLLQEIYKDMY
The assay can be described thus: Affinity On-target Cellular interaction: (Reporter gene assay (HEK293T cells)) EUB0001483aCl PPARD. The format is functional, cell-based, HEK-293T. Set-up: mode of action Antagonist, recommended concentration 10 uM.

Assay [9] addresses Nuclear receptor subfamily 1 group I member 2 (Homo sapiens, UniProt O75469). Briefly: Affinity On-target Cellular interaction: (Reporter gene assay (HEK293T cells)) EUB0002359a NR1I2. The assay is classed as functional, cell-based, HEK-293T. Set-up: mode of action Agonist, recommended concentration 1 uM.
The target in assay [10] is Histone-lysine N-methyltransferase EZH1 (Homo sapiens, UniProt Q92800). Briefly: Affinity On-target Cellular interaction: (Protein substrate methylation in WSU-DLCL2 cells) EUB0002228a EZH1. Set-up: mode of action Inhibitor, recommended concentration 1 uM. The format is functional, cell-based, WSUDLCL2.
Histone-lysine N-methyltransferase EZH1, sequence (Q92800 whole entry): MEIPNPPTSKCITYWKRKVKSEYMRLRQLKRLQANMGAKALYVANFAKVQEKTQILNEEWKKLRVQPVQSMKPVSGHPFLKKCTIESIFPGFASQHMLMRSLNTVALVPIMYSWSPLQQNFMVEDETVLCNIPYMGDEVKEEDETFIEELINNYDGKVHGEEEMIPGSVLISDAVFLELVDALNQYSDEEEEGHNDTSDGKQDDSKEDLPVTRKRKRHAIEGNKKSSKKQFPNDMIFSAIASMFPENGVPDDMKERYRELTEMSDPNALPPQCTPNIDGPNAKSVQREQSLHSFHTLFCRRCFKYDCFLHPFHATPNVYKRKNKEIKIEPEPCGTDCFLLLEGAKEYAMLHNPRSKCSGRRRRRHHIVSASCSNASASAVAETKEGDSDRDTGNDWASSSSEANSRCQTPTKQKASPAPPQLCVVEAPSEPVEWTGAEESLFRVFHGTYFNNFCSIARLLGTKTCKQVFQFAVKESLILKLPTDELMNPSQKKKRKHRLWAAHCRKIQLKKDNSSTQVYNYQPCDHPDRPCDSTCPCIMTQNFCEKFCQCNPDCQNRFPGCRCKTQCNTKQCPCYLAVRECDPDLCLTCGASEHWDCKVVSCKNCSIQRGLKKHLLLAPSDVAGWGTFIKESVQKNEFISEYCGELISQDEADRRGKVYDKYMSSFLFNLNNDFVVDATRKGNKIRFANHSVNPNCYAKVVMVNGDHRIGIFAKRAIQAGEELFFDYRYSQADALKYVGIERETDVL

T1 sequence (Q695T7 whole entry): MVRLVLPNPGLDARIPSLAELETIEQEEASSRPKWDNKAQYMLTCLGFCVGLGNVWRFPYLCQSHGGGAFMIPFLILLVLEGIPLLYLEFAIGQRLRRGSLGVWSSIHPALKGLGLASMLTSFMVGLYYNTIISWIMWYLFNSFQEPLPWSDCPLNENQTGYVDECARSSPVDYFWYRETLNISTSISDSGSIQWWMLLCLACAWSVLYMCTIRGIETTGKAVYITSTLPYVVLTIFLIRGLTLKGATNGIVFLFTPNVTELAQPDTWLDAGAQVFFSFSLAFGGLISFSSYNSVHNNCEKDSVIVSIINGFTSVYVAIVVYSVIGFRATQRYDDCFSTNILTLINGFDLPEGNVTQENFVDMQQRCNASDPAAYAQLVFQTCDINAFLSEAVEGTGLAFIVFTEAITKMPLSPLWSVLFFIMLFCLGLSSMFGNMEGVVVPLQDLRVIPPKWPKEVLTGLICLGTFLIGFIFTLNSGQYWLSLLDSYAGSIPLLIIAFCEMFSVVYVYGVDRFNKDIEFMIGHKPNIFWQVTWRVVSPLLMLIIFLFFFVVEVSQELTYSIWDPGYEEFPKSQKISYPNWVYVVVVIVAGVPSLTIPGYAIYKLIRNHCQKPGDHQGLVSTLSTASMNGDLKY
Histone deacetylase 1, sequence (Q13547 whole entry): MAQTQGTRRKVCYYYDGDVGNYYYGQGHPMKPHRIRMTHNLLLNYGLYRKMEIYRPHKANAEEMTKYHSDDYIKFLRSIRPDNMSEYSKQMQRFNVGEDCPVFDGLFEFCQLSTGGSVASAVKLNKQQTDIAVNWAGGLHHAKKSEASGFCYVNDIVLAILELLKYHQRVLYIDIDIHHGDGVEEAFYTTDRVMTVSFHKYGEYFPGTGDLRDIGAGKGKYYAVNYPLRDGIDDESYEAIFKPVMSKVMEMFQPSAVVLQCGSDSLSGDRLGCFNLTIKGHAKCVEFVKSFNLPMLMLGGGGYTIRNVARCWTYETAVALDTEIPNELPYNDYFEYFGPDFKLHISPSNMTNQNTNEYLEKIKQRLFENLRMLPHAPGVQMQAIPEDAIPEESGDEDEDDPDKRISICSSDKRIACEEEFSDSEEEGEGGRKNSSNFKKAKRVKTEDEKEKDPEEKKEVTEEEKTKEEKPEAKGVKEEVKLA
Adenosine kinase, sequence (P55263 whole entry): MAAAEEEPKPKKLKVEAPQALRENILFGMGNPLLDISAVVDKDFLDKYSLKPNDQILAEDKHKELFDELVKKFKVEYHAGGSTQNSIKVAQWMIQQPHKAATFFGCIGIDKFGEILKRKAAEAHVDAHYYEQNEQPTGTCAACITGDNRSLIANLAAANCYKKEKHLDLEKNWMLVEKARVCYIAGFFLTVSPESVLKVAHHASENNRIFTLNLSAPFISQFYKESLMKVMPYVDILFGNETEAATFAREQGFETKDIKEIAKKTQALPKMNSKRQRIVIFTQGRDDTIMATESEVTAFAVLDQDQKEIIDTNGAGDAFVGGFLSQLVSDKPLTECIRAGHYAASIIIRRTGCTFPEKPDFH

With `CCNC(=O)/C=C/c1cccc(Br)c1` [CINROMIDE], the IC50 (commonly the concentration that inhibits the measured activity by half) came to 370 nM in assay [1] and 280 nM in assay [2]. Regarding `CC(C)(O)c1cn(-c2ccc(-c3cccc(S(C)(=O)=O)c3)cc2)c(C(C)(C)c2ccccc2Cl)n1` [BMS-779788], the EC50 – broadly, the concentration needed to bring the measured effect to its halfway point – in assay [3] amounted to 300 nM; in assay [4] it was 200 nM.

`C[C@@H](Oc1ccc(S(C)(=O)=O)cc1C(=O)N1C[C@@H]2C[C@]2(c2cc(C(F)(F)F)on2)C1)C(F)(F)F` [ICLEPERTIN] registered an IC50 in assay [5] of 5 nM.

As to `Nc1ccc(-c2cccs2)cc1NC(=O)c1ccc(NC=O)cc1`, the IC50 at Histone deacetylase 2 and against Histone deacetylase 1 was 300 nM each time. The compound `CCOC(=O)C1Cc2ccccc2CN1C(=O)c1ccc(SC)s1` (centres undefined) returned an IC50 in assay [6] of 470 nM. Take `O=C(O)c1ccnc(N2CC(O)(c3ccc(OCc4c(-c5c(Cl)cccc5Cl)noc4C4CC4)cc3Cl)C2)c1` [CILOFEXOR]: on Bile acid receptor, the EC50 is 40 nM.

For the compound `CCOC(=O)N1CCC(CN(Cc2ccc(Cl)cc2)Cc2ccc([N+](=O)[O-])s2)C1` (centres undefined) [SR9009], the EC50 in assay [7] was 11000 nM. At Adenosine kinase, `Nc1ncnc2nc(-c3ccc(N4CCOCC4)nc3)cc(-c3cccc(Br)c3)c12` came in with an IC50 of 51 nM. `CN1CCN(c2ccc(/C=C(\C#N)c3ccccc3Br)cc2)CC1`: the IC50 in [8] was 1800 nM. In [9], `CC(C)c1c(CN(C)C(C)Cc2ccccc2)n(C)n(-c2ccccc2)c1=O` (centres undefined) [FAMPROFAZONE] displayed a half-maximal effective concentration (EC50) of 130 nM.

In turn, `CCN(c1cc(C#CCN2CCOCC2)cc(C(=O)NCc2c(C)cc(C)[nH]c2=O)c1C)[C@H]1CC[C@H](N(C)CCOC)CC1` showed an IC50 in assay [10] below 100 nM.
